Measurements as given in PMC10914731, “Homo-BacPROTAC-induced degradation of ClpC1 as a strategy against drug-resistant mycobacteria” (Nature Communications, 2024).
In brackets after ≈: the same amount, converted by molar mass. Several values for one entry are separate records, joined by “and”; a condition that tells them apart may be missing. Equal values may be shown once. Read-outs that look alike come from different tables or passages of the source. *1 amine or outer side, *2 acyl side, *3 side chain or, on linkers, in order; H or OH if unused. Where a SMILES comes first, the peptide text is derived from it. [ ]: non-standard residue; d: D form. X1 = C#CCn1cc(C[C@H](N[*:1])C(=O)[*:2])c2ccccc21; NMeLeu(5-OH,4R) = CN[C@@H](C[C@@H](C)CO)C(=O)O; Phe(βR-OMe) = CO[C@H](c1ccccc1)[C@H](N)C(=O)O; Trp(1-Me) = Cn1cc(C[C@H](N)C(=O)O)c2ccccc21; NMeL = CN[C@@H](CC(C)C)C(=O)O; Pra = C#CC[C@H](N)C(=O)O

Key:
[1] = type: in vitro ADME, Mice; settings: for Microsomal Stability Mice: clearance in microsomes
Outline: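 Steps: incubate compound at 1 µmol/l with liver microsomes (0.5 mg/ml) plus 1 mM NADPH in pH 7.5 Tris-HCl buffer containing MgCl2 at 37 °C; stop aliquots over time with acetonitrile; centrifuge and measure remaining compound by LC-MS/MS; fit first-order decay and convert half-life to %Qh.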

[2] = type: in vitro ADME, Human
[3] = test system: Mtb ATCC 35825; experiment: microbe, parasite or virus in culture; type: cell-based
[4] = test system: Klebsiella pneumoniae; experiment: MIC ESKAPES panel, Klebsiella pneumoniae; type: cell-based
Protocol: Minimum inhibitory concentration (MIC) against ESKAPES panel of Gram positive and Gram negative pathogens (Enterococcus faecium, Staphylococcus aureus, Klebsiella pneumoniae, Acinetobacter baumannii, Pseudomonas aeruginosa, Enterobacter cloacae and Salmonella typhimurium [ESKAPES panel]) were determined at the FNDR by the standard broth dilution method [CLSI, M100]. […] Mueller Hinton broth (MHB) medium was used to grow ESKAPES panel strains. The individual cultures were added as 200 μL (inoculum of 3–7 × 10^5 cfu/ml) to the respective assay plates in each well to all columns, except the media control (200 μL of medium). […] The assay plates were incubated at 37 °C, and the results were noted on the 2nd day as turbidometric readout. The clear wells indicated inhibition of growth, while the turbid wells indicated uninhibited growth.

[5] = test system: Mycobacterium fortuitum; experiment: microbe, parasite or virus in culture; type: cell-based
[6] = test system: non-replicating cells of Mtb H37Rv; type: cell-based, Mycobacterium tuberculosis; settings: three replicate columns
[7] = molecular target: ClpC1-NTD substrate, M. tuberculosis ClpC1P1P2 (Mycobacterium tuberculosis, UniProt P9WPC9); experiment: biochemical; type: biochemical; settings: Mtb
ClpC1-NTD substrate, M. tuberculosis ClpC1P1P2, sequence (P9WPC5 whole entry): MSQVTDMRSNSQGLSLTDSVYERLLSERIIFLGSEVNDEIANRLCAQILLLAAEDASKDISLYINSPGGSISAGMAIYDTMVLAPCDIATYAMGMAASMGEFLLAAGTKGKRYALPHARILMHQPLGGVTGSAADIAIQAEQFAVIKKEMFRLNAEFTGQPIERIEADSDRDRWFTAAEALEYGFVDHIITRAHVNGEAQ
ClpC1-NTD substrate, M. tuberculosis ClpC1P1P2, sequence (P9WPC9 whole entry): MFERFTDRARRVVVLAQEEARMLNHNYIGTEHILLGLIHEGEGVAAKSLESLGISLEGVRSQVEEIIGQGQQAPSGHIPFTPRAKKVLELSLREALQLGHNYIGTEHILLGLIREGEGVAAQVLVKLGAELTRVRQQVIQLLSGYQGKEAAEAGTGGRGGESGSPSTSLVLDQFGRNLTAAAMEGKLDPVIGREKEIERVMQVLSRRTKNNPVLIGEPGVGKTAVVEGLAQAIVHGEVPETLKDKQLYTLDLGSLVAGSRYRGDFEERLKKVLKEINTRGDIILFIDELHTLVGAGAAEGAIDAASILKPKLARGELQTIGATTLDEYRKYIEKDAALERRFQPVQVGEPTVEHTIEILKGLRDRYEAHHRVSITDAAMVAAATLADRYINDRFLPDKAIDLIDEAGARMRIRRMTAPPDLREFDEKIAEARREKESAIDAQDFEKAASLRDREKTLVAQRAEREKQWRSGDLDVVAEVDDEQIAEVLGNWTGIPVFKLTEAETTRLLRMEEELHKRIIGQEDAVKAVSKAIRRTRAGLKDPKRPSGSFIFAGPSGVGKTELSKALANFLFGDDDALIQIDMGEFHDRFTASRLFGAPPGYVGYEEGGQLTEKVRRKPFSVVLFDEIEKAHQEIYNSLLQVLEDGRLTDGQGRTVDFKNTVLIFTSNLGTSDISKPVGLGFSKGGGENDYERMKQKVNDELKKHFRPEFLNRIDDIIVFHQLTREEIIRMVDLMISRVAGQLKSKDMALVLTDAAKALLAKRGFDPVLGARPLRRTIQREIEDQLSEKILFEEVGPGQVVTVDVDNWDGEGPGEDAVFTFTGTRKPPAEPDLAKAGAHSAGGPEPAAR
ClpC1-NTD substrate, M. tuberculosis ClpC1P1P2, sequence (P9WPC3 whole entry, further chain): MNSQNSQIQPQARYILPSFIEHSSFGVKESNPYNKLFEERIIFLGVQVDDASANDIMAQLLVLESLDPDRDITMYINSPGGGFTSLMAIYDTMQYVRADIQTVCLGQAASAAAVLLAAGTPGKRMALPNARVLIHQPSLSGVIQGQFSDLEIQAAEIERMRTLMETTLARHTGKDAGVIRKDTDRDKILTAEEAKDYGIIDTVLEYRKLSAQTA

[8] = molecular target: endogenous ClpC1 in Msm #607 cells (Mycolicibacterium smegmatis, UniProt A0R574); type: cell-based, M. smegmatis; settings: for ClpC1 peak area: 100 µM, Figure 5c, well replicates of 3 experiments; for intracellular degradation of ClpC1: Msm #607, 24 h, result in words
endogenous ClpC1 in Msm #607 cells, sequence (A0R574 whole entry): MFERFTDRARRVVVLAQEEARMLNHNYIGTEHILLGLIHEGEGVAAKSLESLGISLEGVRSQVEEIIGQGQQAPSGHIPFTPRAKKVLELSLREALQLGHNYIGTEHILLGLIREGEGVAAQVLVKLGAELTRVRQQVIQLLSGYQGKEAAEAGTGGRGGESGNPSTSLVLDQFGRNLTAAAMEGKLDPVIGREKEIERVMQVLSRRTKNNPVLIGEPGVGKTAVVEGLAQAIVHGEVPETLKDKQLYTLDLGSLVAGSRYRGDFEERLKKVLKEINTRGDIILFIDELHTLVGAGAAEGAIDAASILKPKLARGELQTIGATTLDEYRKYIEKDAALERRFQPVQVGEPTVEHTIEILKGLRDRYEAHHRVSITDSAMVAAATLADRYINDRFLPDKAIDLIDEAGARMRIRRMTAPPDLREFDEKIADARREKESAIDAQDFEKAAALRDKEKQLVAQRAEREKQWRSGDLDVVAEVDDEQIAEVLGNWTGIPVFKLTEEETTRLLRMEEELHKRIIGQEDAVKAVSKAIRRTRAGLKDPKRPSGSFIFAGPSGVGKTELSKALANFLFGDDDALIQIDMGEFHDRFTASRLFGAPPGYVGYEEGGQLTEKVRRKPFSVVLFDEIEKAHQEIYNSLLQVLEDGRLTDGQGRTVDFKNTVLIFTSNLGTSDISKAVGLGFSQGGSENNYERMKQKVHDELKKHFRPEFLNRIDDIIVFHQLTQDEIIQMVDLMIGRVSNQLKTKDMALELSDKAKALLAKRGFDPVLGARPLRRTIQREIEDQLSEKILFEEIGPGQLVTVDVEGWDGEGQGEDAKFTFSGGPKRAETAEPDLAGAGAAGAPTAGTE

[9] = test system: replicating Mtb H37Rv cells; experiment: Resazurin growth assay, replicating Mtb H37Rv (Supplementary Fig. 2); type: cell-based, Mycobacterium tuberculosis; settings: three replicate columns
[10] = Mycobacterium tuberculosis, ATCC35825, mean, n = 2 well replicates
[11] = Mycobacterium tuberculosis, ATCC35825, single well replicates
[12] = Gram-Negative Bacteria, replicates 1-3
[13] = Klebsiella pneumoniae, Gram negative, n = 3 well replicates
[14] = Klebsiella pneumoniae, Gram-Negative Bacteria, replicates 1-3
[15] = Experiment 1, read-out: MIC Mycobacterium fortuitum
[16] = Experiment 2, three replicate columns
[17] = Experiment 2, three replicate columns, read-out: MIC (µM) Mycobacterium fortuitum
[18] = Mycolicibacterium fortuitum, Experiment 1, read-out: MIC Mycobacterium fortuitum
[19] = Mycolicibacterium fortuitum, Experiment 2, three replicate columns, read-out: MIC (µM) Mycobacterium fortuitum
[20] = Mycolicibacterium fortuitum, Experiment 2, three replicate columns, read-out: MIC (µg/ml) Mycobacterium fortuitum
[21] = Mycolicibacterium fortuitum, mean ± SD, read-out: MIC Mycobacterium fortuitum
[22] = Measurement 1-4, read-out: DC50, single measurements
[23] = mean of the measurements, read-out: DC50, Mean

C#CC[C@@H]1NC(=O)[C@H](CC(C)C)N(C)C(=O)[C@H](C(C)C)NC(=O)[C@H]([C@H](OC)c2ccccc2)NC(=O)[C@H](C)NC(=O)[C@H](C[C@@H](C)CO)N(C)C(=O)[C@H](Cc2cn(C)c3ccccc23)NC1=O [Compound 10] (cyclo(A[Phe(βR-OMe)]V[NMeL][Pra][Trp(1-Me)][NMeLeu(5-OH,4R)]))
Microsomal Stability Mouse QH [1]: >88.400% | Microsomal Stability Mice [1]: > 88 %Qh | Hepatocyte Human ([2]; clearance in hepatocytes): 12 %Qh | MIC [3, 10]: 0.4 µM and 0.4 µg/mL | MIC [3, 11]: 0.36 µg/mL and 0.39 µM | MIC ([3]; single well replicates): 0.39 µM (≈ 0.356 µg/mL) | MIC Mtb ATCC 35825 ([3]; single well replicates): 0.36 µg/mL (≈ 0.394 µM) | MIC [4, 12]: >50 µM | MIC [4, 13]: > 50 µM | MIC [4, 14]: > 45.6 µg/mL | MIC [5, 15]: 12.5 µM | MIC (µg/ml) Mycobacterium fortuitum [5, 16]: 11.41 µg/mL (≈ 12.5 µM) | MIC [5, 17]: 12.5 µM | MIC [5, 18]: 11.4 µg/mL | MIC [5, 19]: 12.5 µM | MIC [5, 20]: 11.4 µg/mL | MIC [5, 21]: 12.5 µM | Supplementary Figure 2 dose-response value, starvation-induced non-replicating H37Rv cells ([6]; Conc. 0.0488281 µM): 91.338 and 78.4072 and 99.8789 | Supplementary Figure 2 dose-response value, starvation-induced non-replicating H37Rv cells ([6]; Conc. 0.0976562 µM): 83.6098 and 87.8245 and 85.6175 | Supplementary Figure 2 dose-response value, starvation-induced non-replicating H37Rv cells ([6]; Conc. 0.195312 µM): 83.554 and 88.4379 and 86.5417 | Supplementary Figure 2 dose-response value, starvation-induced non-replicating H37Rv cells ([6]; Conc. 0.390625 µM): 81.2435 and 84.4384 and 85.1554 | Supplementary Figure 2 dose-response value, starvation-induced non-replicating H37Rv cells ([6]; Conc. 0.78125 µM): 80.3114 and 85.7211 and 82.4466 | Supplementary Figure 2 dose-response value, starvation-induced non-replicating H37Rv cells ([6]; Conc. 1.5625 µM): 81.8012 and 82.096 and 79.8971 | Supplementary Figure 2 dose-response value, starvation-induced non-replicating H37Rv cells ([6]; Conc. 3.125 µM): 77.0129 and 81.0842 and 77.6981 | Supplementary Figure 2 dose-response value, starvation-induced non-replicating H37Rv cells ([6]; Conc. 6.25 µM): 66.8627 and 77.4193 and 82.598 | Supplementary Figure 2 dose-response value, starvation-induced non-replicating H37Rv cells ([6]; Conc. 25 µM): 73.1408 and 72.615 and 70.6073 | Supplementary Figure 2 dose-response value, starvation-induced non-replicating H37Rv cells ([6]; Conc. 50 µM): 65.1656 and 61.5724 and 59.0468 | Supplementary Figure 2 dose-response value, starvation-induced non-replicating H37Rv cells ([6]; Conc. 100 µM): 53.5574 and 51.9958 and 57.3099 | DC50 [7, 22]: > 100 µM | DC50 [7, 23]: > 100 µM | ClpC1 peak area [8]: 412581 and 373241 and 483939 and 462615 and 61275.5 and 294306 and 484139 and 455205 and 481589 | intracellular degradation of ClpC1 [8]: did not induce degradation of ClpC1 | Supplementary Figure 2 dose-response value, replicating H37Rv cells ([9]; Conc. 0.0488281 µM): 96.6607 and 85.0023 and 97.6783 | Supplementary Figure 2 dose-response value, replicating H37Rv cells ([9]; Conc. 0.0976562 µM): 91.646 and 99.7213 and 83.381 | Supplementary Figure 2 dose-response value, replicating H37Rv cells ([9]; Conc. 0.195312 µM): 93.9637 and 88.7594 and 93.2053 | Supplementary Figure 2 dose-response value, replicating H37Rv cells ([9]; Conc. 0.390625 µM): 95.6392 and 103.405 and 93.9985 | Supplementary Figure 2 dose-response value, replicating H37Rv cells ([9]; Conc. 0.78125 µM): 94.5519 and 83.8686 and 95.6043 | Supplementary Figure 2 dose-response value, replicating H37Rv cells ([9]; Conc. 1.5625 µM): 94.1959 and 100.812 and 95.4766 | Supplementary Figure 2 dose-response value, replicating H37Rv cells ([9]; Conc. 3.125 µM): 91.4989 and 87.2697 and 84.1472 | Supplementary Figure 2 dose-response value, replicating H37Rv cells ([9]; Conc. 6.25 µM): 90.8682 and 96.9509 and 92.2612 | Supplementary Figure 2 dose-response value, replicating H37Rv cells ([9]; Conc. 25 µM): 58.5243 and 57.8085 and 53.4206 | Supplementary Figure 2 dose-response value, replicating H37Rv cells ([9]; Conc. 50 µM): 10.7146 and 27.4379 and 10.7068 | Supplementary Figure 2 dose-response value, replicating H37Rv cells ([9]; Conc. 100 µM): 10.7533 and 7.29 and 10.5908

C#CCn1cc(C[C@@H]2NC(=O)[C@H](C(C)C)NC(=O)[C@H](CC(C)C)N(C)C(=O)[C@H](C(C)C)NC(=O)[C@H]([C@H](OC)c3ccccc3)NC(=O)[C@H](C)NC(=O)[C@H](C[C@@H](C)CO)N(C)C2=O)c2ccccc21 [Compound 5] (cyclo(A[Phe(βR-OMe)]V[NMeL]V[X1][NMeLeu(5-OH,4R)]))
Microsomal Stability Mouse QH [1]: >88.400% | Microsomal Stability Mice [1]: > 88 %Qh | Hepatocyte Human ([2]; human, pH 7.4): 12 %Qh | Hepatocyte Stability Human QH ([2]; human, pH 7.4): 12.386% | MIC [3, 10]: 0.2 µM and 0.2 µg/mL | MIC [3, 11]: 0.18 µg/mL and 0.19 µM | MIC ([3]; single well replicates): 0.19 µM (≈ 0.179 µg/mL) | MIC Mtb ATCC 35825 ([3]; single well replicates): 0.18 µg/mL (≈ 0.191 µM) | MIC [4, 12]: >50 µM | MIC [4, 13]: > 50 µM | MIC [4, 14]: > 47 µg/mL | MIC [5, 15]: 6.3 µM | MIC (µg/ml) Mycobacterium fortuitum [5, 16]: 5.88 µg/mL (≈ 6.25 µM) | MIC [5, 17]: 6.25 µM | MIC [5, 18]: 5.9 µg/mL | MIC [5, 19]: 6.25 µM | MIC [5, 20]: 5.88 µg/mL | MIC [5, 21]: 6.3 µM | Supplementary Figure 2 dose-response value, starvation-induced non-replicating H37Rv cells ([6]; Conc. 0.0488281 µM): 103.448 and 95.0508 and 97.0505 | Supplementary Figure 2 dose-response value, starvation-induced non-replicating H37Rv cells ([6]; Conc. 0.0976562 µM): 90.7405 and 81.0762 and 83.793 | Supplementary Figure 2 dose-response value, starvation-induced non-replicating H37Rv cells ([6]; Conc. 0.195312 µM): 92.9713 and 85.6175 and 87.7368 | Supplementary Figure 2 dose-response value, starvation-induced non-replicating H37Rv cells ([6]; Conc. 0.390625 µM): 86.478 and 81.4188 and 83.0521 | Supplementary Figure 2 dose-response value, starvation-induced non-replicating H37Rv cells ([6]; Conc. 0.78125 µM): 85.259 and 79.8652 and 81.4825 | Supplementary Figure 2 dose-response value, starvation-induced non-replicating H37Rv cells ([6]; Conc. 1.5625 µM): 86.0796 and 80.7177 and 79.658 | Supplementary Figure 2 dose-response value, starvation-induced non-replicating H37Rv cells ([6]; Conc. 3.125 µM): 84.8208 and 76.8536 and 80.407 | Supplementary Figure 2 dose-response value, starvation-induced non-replicating H37Rv cells ([6]; Conc. 6.25 µM): 82.0881 and 78.7498 and 78.7099 | Supplementary Figure 2 dose-response value, starvation-induced non-replicating H37Rv cells ([6]; Conc. 25 µM): 68.1135 and 65.0382 and 65.6038 | Supplementary Figure 2 dose-response value, starvation-induced non-replicating H37Rv cells ([6]; Conc. 50 µM): 63.9387 and 63.1101 and 60.943 | Supplementary Figure 2 dose-response value, starvation-induced non-replicating H37Rv cells ([6]; Conc. 100 µM): 61.9787 and 54.8959 and 58.7122 | DC50 [7, 22]: > 100 µM | DC50 [7, 23]: > 100 µM | ClpC1 peak area [8]: 296040 and 308121 and 346162 and 550976 and 476988 and 428795 and 417149 and 443522 and 406576 | intracellular degradation of ClpC1 [8]: did not induce degradation of ClpC1 | Supplementary Figure 2 dose-response value, replicating H37Rv cells ([9]; Conc. 0.0488281 µM): 98.0652 and 83.9808 and 80.51 | Supplementary Figure 2 dose-response value, replicating H37Rv cells ([9]; Conc. 0.0976562 µM): 93.0506 and 83.7138 and 106.369 | Supplementary Figure 2 dose-response value, replicating H37Rv cells ([9]; Conc. 0.195312 µM): 80.9008 and 79.6239 and 83.1102 | Supplementary Figure 2 dose-response value, replicating H37Rv cells ([9]; Conc. 0.390625 µM): 100.805 and 94.8498 and 103.432 | Supplementary Figure 2 dose-response value, replicating H37Rv cells ([9]; Conc. 0.78125 µM): 90.0247 and 88.21 and 77.7086 | Supplementary Figure 2 dose-response value, replicating H37Rv cells ([9]; Conc. 1.5625 µM): 89.1967 and 85.691 and 102.875 | Supplementary Figure 2 dose-response value, replicating H37Rv cells ([9]; Conc. 3.125 µM): 81.2645 and 83.4662 and 77.6892 | Supplementary Figure 2 dose-response value, replicating H37Rv cells ([9]; Conc. 6.25 µM): 79.2563 and 81.2993 and 97.3301 | Supplementary Figure 2 dose-response value, replicating H37Rv cells ([9]; Conc. 25 µM): 23.3248 and 18.2173 and 22.7212 | Supplementary Figure 2 dose-response value, replicating H37Rv cells ([9]; Conc. 50 µM): 9.562 and 6.199 and 9.0701 | Supplementary Figure 2 dose-response value, replicating H37Rv cells ([9]; Conc. 100 µM): 10.3547 and 8.316 and 5.8624
